Among the data in PubChem BioAssay (NCI) are TGI and GI50 values, retold here.

Some test systems named below: SW-620 colon; OVCAR-8 ovarian; SNB-19 CNS; NCI-H23 lung; HL-60(TB) leukemia; SK-MEL-5 melanoma; SF-295 CNS; HCT-116 colon; RXF 393 renal; IGROV1 ovarian.
Common to all, as to experiment: NCI tumour cell line growth inhibition, 48 h

SMILES strings stand for the structures.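 Each compound was tested at five concentrations against cells in 96-well plates for 48 hours. GI50 is the concentration that inhibits growth by half. Definition used: TGI = concentration required for complete inhibition of growth.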 Where only a bound is given, the exact number is not on record here.

On to `COc1ccc(NC(=O)/C(CC2=Nc3ccc([N+](=O)[O-])cc3NC2O)=N\NC(=O)C[N+](C)(C)C)c(OC)c1` (stereo unspecified), for which the TGI in the assay on SW-620 colon was more than 100 µM; in the assay with OVCAR-8 ovarian it was 69.8 µM; in the assay with SNB-19 CNS, more than 100 µM; in the assay with NCI-H23 lung, more than 100 µM; with HL-60(TB) leukemia it was more than 100 µM; in the assay with SK-MEL-5 melanoma, 96.3 µM. The TGI in the assay with SF-295 CNS, in the assay on HCT-116 colon, in the assay on RXF 393 renal and with IGROV1 ovarian was more than 100 µM each time.

Consider `Brc1ccccc1-c1ncc(-c2ccccc2)o1`, for which the TGI is more than 100 µM in the assay on SW-620 colon; more than 100 µM in the assay with OVCAR-8 ovarian; more than 100 µM in the assay with SNB-19 CNS; more than 100 µM in the assay on NCI-H23 lung; more than 100 µM with HL-60(TB) leukemia; 34.5 µM in the assay on SK-MEL-5 melanoma. The TGI with SF-295 CNS is more than 100 µM; with HCT-116 colon, more than 100 µM; with RXF 393 renal, 55.9 µM; in the assay on IGROV1 ovarian it was 78.7 µM.

Take `N#Cc1c(NC(=S)NC(=O)c2ccccc2)nc2c(c1-c1ccccc1)CCCC2`: the TGI in the assay with SW-620 colon, in the assay with OVCAR-8 ovarian, in the assay on SNB-19 CNS, in the assay on NCI-H23 lung, in the assay with HL-60(TB) leukemia and with SK-MEL-5 melanoma was more than 100 µM each time. Further, the TGI was more than 100 µM with SF-295 CNS, more than 100 µM in the assay on HCT-116 colon, 56.5 µM with RXF 393 renal and more than 100 µM with IGROV1 ovarian.

As for `COc1cc(C2c3cc4c(cc3[C@@H](Nc3cccc(C(C)=O)c3)C3COC(=O)[C@H]23)OCO4)cc(OC)c1O` (stereo partly specified), the TGI in the assay on SW-620 colon is more than 38.2 µM; in the assay with OVCAR-8 ovarian, more than 28.9 µM; in the assay on SNB-19 CNS, 4.79 µM; in the assay on NCI-H23 lung, 3.14 µM; with HL-60(TB) leukemia, 0.328 µM; in the assay on SK-MEL-5 melanoma, 2.37 µM. Besides, the TGI with SF-295 CNS came to 1.39 µM; in the assay on HCT-116 colon, 7.81 µM; with RXF 393 renal, 5.4 µM; in the assay on IGROV1 ovarian, 24.6 µM.

In the case of `CCOC(=O)/C=C(\C)c1ccc(OC)cc1`, the TGI with SW-620 colon, in the assay with OVCAR-8 ovarian, in the assay with SNB-19 CNS, in the assay with NCI-H23 lung, in the assay with HL-60(TB) leukemia and in the assay with SK-MEL-5 melanoma was more than 100 µM throughout. Further, the TGI in the assay with SF-295 CNS, in the assay on HCT-116 colon, with RXF 393 renal and in the assay with IGROV1 ovarian was more than 100 µM throughout.

With `CN(C)c1ccc(N=Nc2ccccn2)cc1`, the TGI is more than 100 µM with SW-620 colon; more than 100 µM in the assay with OVCAR-8 ovarian; more than 100 µM with SNB-19 CNS; 83.2 µM with NCI-H23 lung; 52.3 µM in the assay with HL-60(TB) leukemia; more than 100 µM in the assay on SK-MEL-5 melanoma. For the same compound, the TGI in the assay on SF-295 CNS, in the assay on HCT-116 colon, in the assay on RXF 393 renal and with IGROV1 ovarian was more than 100 µM each time.

In the case of `ClCc1c(Cl)c(Cl)c(Cl)c(CCl)c1Cl`, the GI50 was 1.71 µM in the assay with SW-620 colon; 2.51 µM with OVCAR-8 ovarian; 1.94 µM in the assay with SNB-19 CNS; 2.3 µM in the assay with NCI-H23 lung; 2.03 µM in the assay on HL-60(TB) leukemia; 2.23 µM in the assay on SK-MEL-5 melanoma. Further, the GI50 was 9.07 µM in the assay with SF-295 CNS, 1.71 µM in the assay on HCT-116 colon, 1.71 µM with RXF 393 renal and 1.97 µM with IGROV1 ovarian. Also, the TGI in the assay on SW-620 colon worked out at 3.12 µM; in the assay with OVCAR-8 ovarian, 6.03 µM; in the assay with SNB-19 CNS, 4.23 µM; with NCI-H23 lung, 6.67 µM; in the assay on HL-60(TB) leukemia, 4.07 µM; in the assay on SK-MEL-5 melanoma it was 6.25 µM. The TGI with SF-295 CNS stood at 27.7 µM; in the assay on HCT-116 colon, 3.17 µM; in the assay on RXF 393 renal, 3.08 µM; in the assay with IGROV1 ovarian, 4.19 µM.

On to `C#CC[C@@H]1C[C@]2(C)[C@H]3CC=C4[C@H]5CC(C)(C)CC[C@]5(C(=O)NCCCCN)CC[C@@]4(C)[C@]3(C)CC[C@H]2C(C)(C)[C@H]1OC(C)=O`, for which the GI50 in the assay on SW-620 colon is 1.71 µM; in the assay on NCI-H23 lung, 1.75 µM; with HL-60(TB) leukemia, 1.77 µM; with SF-295 CNS, 1.82 µM; in the assay on RXF 393 renal, 1.52 µM; in the assay with IGROV1 ovarian it was 1.62 µM. The TGI in the assay on SW-620 colon is 3.39 µM; in the assay on NCI-H23 lung, 3.47 µM; in the assay with HL-60(TB) leukemia, 3.71 µM; in the assay on SF-295 CNS, 3.29 µM; in the assay on RXF 393 renal, 2.95 µM; in the assay with IGROV1 ovarian, 3.02 µM.

Turning to `CC(C)(Br)C1(O)CCCN1C(=O)c1ccccc1` (stereo unspecified), the TGI with SW-620 colon, in the assay with OVCAR-8 ovarian, with SNB-19 CNS, with NCI-H23 lung, with HL-60(TB) leukemia and with SK-MEL-5 melanoma was more than 100 µM in each case. In addition, the TGI in the assay on SF-295 CNS, with HCT-116 colon, in the assay with RXF 393 renal and in the assay on IGROV1 ovarian was more than 100 µM each time.

`Cc1ccc(S(N)(=O)=O)cc1`: the TGI with SW-620 colon, in the assay with OVCAR-8 ovarian, in the assay with SNB-19 CNS, in the assay on NCI-H23 lung, in the assay on HL-60(TB) leukemia and in the assay with SK-MEL-5 melanoma was more than 1000 µM in each case. Further, the TGI in the assay on SF-295 CNS, in the assay on HCT-116 colon, in the assay with RXF 393 renal and in the assay on IGROV1 ovarian was more than 1000 µM throughout.

On to `COc1ccc(-c2cc(N3CCN(c4ccccc4)CC3)c(C#N)c(=O)o2)cc1`, for which the TGI is more than 100 µM in the assay with SW-620 colon; more than 100 µM with OVCAR-8 ovarian; 49.8 µM with SNB-19 CNS; more than 100 µM in the assay with NCI-H23 lung; more than 100 µM in the assay on HL-60(TB) leukemia; more than 100 µM in the assay with SK-MEL-5 melanoma. Besides, the TGI was 59.5 µM in the assay on SF-295 CNS, more than 100 µM in the assay on HCT-116 colon, 38 µM in the assay on RXF 393 renal and more than 100 µM in the assay on IGROV1 ovarian.

Turning to `NCc1ccc(C(=O)O)cc1`, the TGI in the assay with SW-620 colon, with OVCAR-8 ovarian, with SNB-19 CNS, in the assay with NCI-H23 lung, with HL-60(TB) leukemia and in the assay with SK-MEL-5 melanoma was more than 100 µM in each case. Moreover, the TGI in the assay with SF-295 CNS, with HCT-116 colon, with RXF 393 renal and in the assay on IGROV1 ovarian was more than 100 µM throughout.

In the case of `COc1ccc(NC(=O)/C(=C/c2ccc(N(CCC#N)CCC#N)cc2)NC(=O)c2cc([N+](=O)[O-])ccc2Cl)cc1`, the TGI in the assay with SW-620 colon was more than 100 µM; in the assay with OVCAR-8 ovarian, more than 100 µM; in the assay on SNB-19 CNS, more than 100 µM; in the assay with NCI-H23 lung, more than 100 µM; in the assay on SK-MEL-5 melanoma it was more than 100 µM; in the assay on SF-295 CNS, 73.2 µM. Also, the TGI in the assay with HCT-116 colon, with RXF 393 renal and in the assay on IGROV1 ovarian was more than 100 µM throughout.
